Test results as given in article PMC5516028, “Molecular tools for GABAA receptors: High affinity ligands for β1-containing subtypes” (Scientific Reports, 2017).
Values joined by “and” are separate entries in the source; they are usually repeats but may differ in a detail not shown here. Equal values may be shown once. Read-outs that look alike come from different tables or passages of the source.

Columns and labels:
Format in all cases: cell-based
α1β1 GABAA receptors = molecular target: T1, α1β1 GABAA receptors (Rattus norvegicus, UniProt P15431+P62813); experiment: Two electrode voltage clamp in Xenopus laevis oocytes, α1β1; details: for EC50: read-out: EC50
T1 construct: expressed in transfected cells; host or cells: Xenopus laevis oocytes, mRNA injected
T1 sequence (P62813 28-455): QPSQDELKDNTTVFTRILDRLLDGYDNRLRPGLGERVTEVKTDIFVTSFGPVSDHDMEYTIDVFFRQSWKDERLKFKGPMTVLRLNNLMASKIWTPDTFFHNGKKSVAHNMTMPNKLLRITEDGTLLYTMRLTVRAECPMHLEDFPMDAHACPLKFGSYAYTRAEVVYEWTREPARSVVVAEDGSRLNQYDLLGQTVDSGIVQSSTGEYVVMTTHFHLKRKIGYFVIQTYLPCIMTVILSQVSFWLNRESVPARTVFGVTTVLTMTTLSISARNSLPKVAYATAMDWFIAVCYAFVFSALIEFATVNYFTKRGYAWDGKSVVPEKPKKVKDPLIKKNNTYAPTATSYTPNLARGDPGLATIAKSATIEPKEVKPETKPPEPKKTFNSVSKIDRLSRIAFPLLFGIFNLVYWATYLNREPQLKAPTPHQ
T1 sequence (P15431 26-474): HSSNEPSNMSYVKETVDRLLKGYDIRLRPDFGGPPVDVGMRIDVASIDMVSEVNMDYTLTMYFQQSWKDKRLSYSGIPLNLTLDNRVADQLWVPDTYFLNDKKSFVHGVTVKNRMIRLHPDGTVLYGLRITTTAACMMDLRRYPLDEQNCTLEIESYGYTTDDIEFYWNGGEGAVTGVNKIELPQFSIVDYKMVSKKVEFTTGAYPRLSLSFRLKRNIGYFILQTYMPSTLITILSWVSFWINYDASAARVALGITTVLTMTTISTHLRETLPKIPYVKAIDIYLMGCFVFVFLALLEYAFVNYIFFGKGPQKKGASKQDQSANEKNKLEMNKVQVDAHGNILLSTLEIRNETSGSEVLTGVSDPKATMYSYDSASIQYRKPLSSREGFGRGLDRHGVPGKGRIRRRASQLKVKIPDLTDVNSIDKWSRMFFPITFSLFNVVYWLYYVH
Method in brief: (§1)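 Currents are recorded in NDE medium (96 mM NaCl, 2 mM KCl, 1 mM MgCl2, 1.8 mM CaCl2, 5 mM HEPES, pH 7.5). Receptors come from 4.5 ng of injected cRNA, mixed 1:1 (αβ) or 1:1:5 (αβγ2).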

α1β2 GABAA receptors = molecular target: T2, α1β2 GABAA receptors (Rattus norvegicus, UniProt P62813+P63138); experiment: Two electrode voltage clamp in Xenopus laevis oocytes, α1β2
T2 construct: expressed in transfected cells; host or cells: Xenopus laevis oocytes, mRNA injected
T2 sequence (P62813 28-455): as the sequence (P62813 28-455) above
T2 sequence (P63138 25-474 limits assumed): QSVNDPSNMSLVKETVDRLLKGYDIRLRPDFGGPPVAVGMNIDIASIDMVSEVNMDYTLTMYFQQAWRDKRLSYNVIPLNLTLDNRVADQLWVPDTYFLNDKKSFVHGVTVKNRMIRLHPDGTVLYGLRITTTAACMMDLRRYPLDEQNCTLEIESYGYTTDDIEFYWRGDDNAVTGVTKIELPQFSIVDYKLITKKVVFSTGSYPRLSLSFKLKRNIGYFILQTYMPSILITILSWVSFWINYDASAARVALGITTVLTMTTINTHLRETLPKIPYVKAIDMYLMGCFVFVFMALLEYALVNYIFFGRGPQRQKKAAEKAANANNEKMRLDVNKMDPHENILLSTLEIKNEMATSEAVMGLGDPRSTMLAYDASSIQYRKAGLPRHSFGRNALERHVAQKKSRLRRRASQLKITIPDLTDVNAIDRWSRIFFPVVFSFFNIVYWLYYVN
Method in brief: as §1

α1β3 GABAA receptors = molecular target: T3, α1β3 GABAA receptors (Rattus norvegicus, UniProt P62813+P63079); experiment: Two electrode voltage clamp in Xenopus laevis oocytes, α1β3
T3 construct: expressed in transfected cells; host or cells: Xenopus laevis oocytes, mRNA injected
T3 sequence (P62813 28-455): as the sequence (P62813 28-455) above
T3 sequence (P63079 26-473): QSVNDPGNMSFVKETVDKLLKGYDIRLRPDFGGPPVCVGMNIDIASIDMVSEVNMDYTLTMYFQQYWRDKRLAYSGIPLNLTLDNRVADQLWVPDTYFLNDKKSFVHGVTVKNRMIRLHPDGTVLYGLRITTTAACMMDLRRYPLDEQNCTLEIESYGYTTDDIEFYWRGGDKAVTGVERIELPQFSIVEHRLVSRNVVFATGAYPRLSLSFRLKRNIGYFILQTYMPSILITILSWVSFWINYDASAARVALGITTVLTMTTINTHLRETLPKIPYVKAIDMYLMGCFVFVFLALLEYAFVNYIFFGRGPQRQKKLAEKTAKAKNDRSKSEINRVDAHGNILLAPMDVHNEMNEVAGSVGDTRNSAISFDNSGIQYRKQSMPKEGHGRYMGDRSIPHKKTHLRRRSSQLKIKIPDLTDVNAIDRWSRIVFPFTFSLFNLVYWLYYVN
Method in brief: (§2)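 Defolliculated stage 5–6 oocytes received 4.5 ng of total rat subunit mRNA. The α:β ratio was 1:1 and the α:β:γ2 ratio was 1:1:5. Cells were held at 18 °C before recording, 2–3 days for binary and 3–4 days for ternary receptors.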

α1β1R41N GABAA receptors = molecular target: T4, α1β1R41N GABAA receptors (Rattus norvegicus, UniProt P15431+P62813, R66N); experiment: Two electrode voltage clamp in Xenopus laevis oocytes, mutant α1β1R41N; details: read-out: % of control current at EC3-5
T4 construct: expressed in transfected cells; host or cells: Xenopus laevis oocytes, mRNA injected
T4 sequence (P62813 28-455): as the sequence (P62813 28-455) above
T4 sequence (P15431 26-474 R66N): as the sequence (P15431 26-474) above, with R41N counted along it
Method in brief: as §1

α1β3N41R GABAA receptors = molecular target: T5, α1β3N41R GABAA receptors (Rattus norvegicus, UniProt P62813+P63079, N66R); experiment: Two electrode voltage clamp in Xenopus laevis oocytes, mutant α1β3N41R; details: co-applied with GABA EC3-5, read-out: EC50 values for the mutated receptors
T5 construct: expressed in transfected cells; host or cells: Xenopus laevis oocytes, mRNA injected
T5 sequence (P62813 28-455): as the sequence (P62813 28-455) above
T5 sequence (P63079 26-473 N66R): as the sequence (P63079 26-473) above, with N41R counted along it
Method in brief: as §2

α2β3γ2 GABAA receptors = molecular target: T6, α2β3γ2 GABAA receptors (Rattus norvegicus, UniProt P23576+P63079); experiment: Two electrode voltage clamp in Xenopus laevis oocytes, α2β3γ2
T6 construct: expressed in transfected cells; host or cells: Xenopus laevis oocytes, mRNA injected
T6 sequence (P23576 29-451): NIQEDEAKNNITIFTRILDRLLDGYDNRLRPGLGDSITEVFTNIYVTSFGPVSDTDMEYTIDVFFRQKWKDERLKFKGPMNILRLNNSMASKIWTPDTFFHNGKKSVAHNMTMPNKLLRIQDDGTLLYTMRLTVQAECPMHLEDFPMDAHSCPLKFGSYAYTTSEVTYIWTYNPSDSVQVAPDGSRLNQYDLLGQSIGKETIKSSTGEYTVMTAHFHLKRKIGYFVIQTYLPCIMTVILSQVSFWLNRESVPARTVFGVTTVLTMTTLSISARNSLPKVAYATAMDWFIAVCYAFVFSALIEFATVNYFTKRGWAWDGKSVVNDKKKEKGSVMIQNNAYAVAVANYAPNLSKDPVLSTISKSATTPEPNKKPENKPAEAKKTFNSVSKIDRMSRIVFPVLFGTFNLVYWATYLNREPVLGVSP
T6 sequence (P63079 26-473): as the sequence (P63079 26-473) above
T6 sequence (P18508 39-466 partner): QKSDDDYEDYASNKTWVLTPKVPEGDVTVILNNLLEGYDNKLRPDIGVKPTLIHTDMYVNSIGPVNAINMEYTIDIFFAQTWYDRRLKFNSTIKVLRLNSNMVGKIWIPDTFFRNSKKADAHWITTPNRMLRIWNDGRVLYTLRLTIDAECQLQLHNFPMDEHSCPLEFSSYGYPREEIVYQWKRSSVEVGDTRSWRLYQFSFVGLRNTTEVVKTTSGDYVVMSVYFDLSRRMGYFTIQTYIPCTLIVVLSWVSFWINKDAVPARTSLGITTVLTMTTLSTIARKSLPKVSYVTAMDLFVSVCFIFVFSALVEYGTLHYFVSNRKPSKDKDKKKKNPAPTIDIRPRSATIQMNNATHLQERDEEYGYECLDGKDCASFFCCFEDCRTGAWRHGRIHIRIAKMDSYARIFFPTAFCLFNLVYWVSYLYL
Source text: (§3) cDNA’s of rat GABAA receptor subunits α1, α4, β1, β2, β3 and γ2S were cloned as described. cDNAs of the rat subunits α2, α3 and α5 were gifts from P. Malherbe, that of α6 and γ1 were gifts of P. Seeburg and that of δ was a gift of C. Czajkowski. The mutants were constructed using the Q5 Site-Directed Mutagenesis Kit (New England Biolabs) following manufacturer’s instruction. We used the wild-type rat β3-pCI vector as template and the primers […] and […] resulting in a substitution of amino acid N41 (AAC) to R (AGG). We used the wild-type rat β1-pCI vector as template and the primers […] and […] resulting in a substitution of amino acid R41 (CGG) to N (AAC). The mutated subunits were confirmed by sequencing.
(§4) In vitro transcription of mRNA was based on the cDNA expression vectors encoding for rat GABAA receptor subunits α1–6, β1-3, γ1,2, δ and the two β mutants (β1R41N and β3N41R)[40]. After linearizing the cDNA vectors with appropriate restriction endonucleases, the cDNA was purified and concentrated with the DNA Clean and Contentrator ^TM Kit (Zymoresearch, Catalog No. D4005). Capped transcripts of the purified cDNA were produced using the mMESSAGE mMACHINE® T7 transcription kit (Ambion, TX, USA) and polyadenylated using the Ambion PolyA tailing kit (Ambion). After transcription and polyadenylation the RNA was purified with the MEGAclear ^TM Kit (Ambion, Catalog No. AM1908). The final RNA concentration was measured on NanoDrop® ND-1000 and finally diluted and stored in diethylpyrocarbonate-treated water at −80 °C. For the microinjection, the RNA of αβ receptor combinations was mixed at 1:1 ratio (which leads to αβ receptors that consist of predominantly 3 beta and 2 alpha subunits[27]), for αkβlγm (k = 1–3, l = 1, 3, m = 1, 2) receptors at 1:1:5 ratio, for αkβ3γ2 (k = 4–6) and αkβlδ (k = 1, 4 and 6, l = 1, 3) receptor combinations at 3:1:5 ratio.
(§5) Mature female Xenopus laevis (Nasco, WI) were anesthetized in a bath of ice-cold 0.17% Tricain (Ethyl-m-aminobenzoate, Sigma, MO) before decapitation in full accordance with all rules of the Austrian animal protection law (see http://www.ris.bka.gv.at/Dokumente/BgblAuth/BGBLA_2012_I_114/BGBLA_2012_I_114.pdf) and the Austrian animal experiment by-laws (see https://www.ris.bka.gv.at/Dokumente/BgblAuth/BGBLA_2012_II_522/BGBLA_2012_II_522.pdf) which implement the European Directive 2010/63/EU (see http://eur-lex.europa.eu/LexUriServ/LexUriServ.do?uri=OJ:L:2010:276:0033:0079:en:PDF) into the Austrian law (all information accessed on July 27, 2016). The frog’s ovaries were transferred to ND96 medium (96 mM NaCl, 2 mM KCl, 1 mM MgCl2, 5 mM HEPES; pH 7.5). Stage 5–6 oocytes with the follicle cell layer around them were roughly dissected with forceps into packages of 10–15 cells and washed in Ca^2+-free ND96 medium. Cells were then digested with collagenase (type IA, Sigma, NO, 1 mg/mL ND96) at 18 °C shaking at 30 rpm for 30–60 minutes and gently defolliculated with the aid of a glass pipette with appropriate tip diameter and a platinum loop. Defolliculated cells were stored at 18 °C for at least 6 hours in ND96 solution containing penicillin G (10000 IU/100 mL) and streptomycin (10 mg/100 mL) in order to preselect and exclude damaged cells from further treatment. Healthy defolliculated oocytes were injected with an aqueous solution of mRNA. A total of 4.5 ng of mRNA per oocyte was injected with a Nanoject II (Drummond). After injection of mRNA, oocytes were incubated at 18 °C (ND96 + antibiotic) for 2–3 days for αβ receptors and for 3–4 days for αβγ or αβδ receptors before recording. When cells were measured at later time points, oocytes were stored at +4 °C instead of 18 °C.
(§6) For electrophysiological recordings, oocytes were placed on a nylon-grid in a bath of Ca^2+-containing NDE solution medium [96 mM NaCl, 5 mM HEPES-NaOH (pH 7.5), 2 mM KCl, 1 mM MgCl2, 1.8 mM CaCl2].

α4β3γ2 GABAA receptors = molecular target: T7, α4β3γ2 GABAA receptors (Rattus norvegicus, UniProt P28471+P63079); experiment: Two electrode voltage clamp in Xenopus laevis oocytes, α4β3γ2
T7 construct: expressed in transfected cells; host or cells: Xenopus laevis oocytes, mRNA injected
T7 sequence (P28471 36-552): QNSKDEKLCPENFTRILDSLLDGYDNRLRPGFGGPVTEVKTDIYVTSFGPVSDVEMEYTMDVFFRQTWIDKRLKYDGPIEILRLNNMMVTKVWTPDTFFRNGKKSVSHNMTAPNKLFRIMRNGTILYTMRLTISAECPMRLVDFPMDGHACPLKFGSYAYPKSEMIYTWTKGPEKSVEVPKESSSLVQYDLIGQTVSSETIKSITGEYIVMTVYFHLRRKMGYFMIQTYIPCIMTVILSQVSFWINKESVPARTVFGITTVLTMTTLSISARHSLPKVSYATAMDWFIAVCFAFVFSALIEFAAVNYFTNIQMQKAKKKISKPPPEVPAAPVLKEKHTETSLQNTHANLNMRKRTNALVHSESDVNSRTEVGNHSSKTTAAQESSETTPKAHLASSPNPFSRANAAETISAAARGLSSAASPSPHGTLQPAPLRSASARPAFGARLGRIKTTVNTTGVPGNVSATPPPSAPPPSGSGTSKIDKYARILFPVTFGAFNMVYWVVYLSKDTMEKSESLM
T7 sequence (P63079 26-473): as the sequence (P63079 26-473) above
T7 sequence (P18508 39-466 partner): as the sequence (P18508 39-466 partner) above
Source text: as §3, §4, §5, §6

Nc1ccc(-n2nc3c4cc(Cl)ccc4[nH]cc-3c2=O)cc1 [Compound 3, 8-Chloro-2-(4-aminophenyl)-2H-pyrazolo[4,3-c]quinolin-3(5H)-one]
activity at 0.01 µM (α1β1 GABAA receptors; read-out: efficacy, % of control current (GABA EC3-5 = 100%), α1β1, 10 nM): 116 ± 3.6%
activity at 0.3 µM (α1β1 GABAA receptors; read-out: efficacy, % of control current (GABA EC3-5 = 100%), α1β1, 300 nM): 299 ± 29.7%
activity at 10 µM (α1β1 GABAA receptors; read-out: efficacy, % of control current (GABA EC3-5 = 100%), α1β1, 10 µM): 403 ± 50.9%
Hill slope (nH) (α1β1 GABAA receptors; α1β1): 1.0±0.4
EC50 (α1β1 GABAA receptors; α1β1 (α1+/β1− interface)): ~200 nM
EC50 (α1β1 GABAA receptors; α1β1, co-applied with GABA EC3-5): 220 nM
EC50 (α1β2 GABAA receptors): 1050 nM
activity at 30 µM (α1β2 GABAA receptors; read-out: efficacy, % of control current (GABA EC3-5 = 100%), α1β2, 30 µM): 106 ± 11.4%
Hill slope (nH) (α1β2 GABAA receptors; α1β2): 2.0±0.7
activity at 0.001 µM (α1β3 GABAA receptors; read-out: efficacy, % of control current (GABA EC3-5 = 100%), α1β3, 1 nM): 106 ± 1.9%
activity at 0.01 µM (α1β3 GABAA receptors; read-out: efficacy, % of control current (GABA EC3-5 = 100%), α1β3, 10 nM): 108 ± 5.1%
activity at 0.1 µM (α1β3 GABAA receptors; read-out: efficacy, % of control current (GABA EC3-5 = 100%), α1β3, 100 nM): 125 ± 4.6%
activity at 0.3 µM (α1β3 GABAA receptors; read-out: efficacy, % of control current (GABA EC3-5 = 100%), α1β3, 300 nM): 128 ± 8%
activity at 3 µM (α1β3 GABAA receptors; read-out: efficacy, % of control current (GABA EC3-5 = 100%), α1β3, 3 µM): 254 ± 28.7%
Hill slope (nH) (α1β3 GABAA receptors; α1β3): 1.1±0.5
efficacy, % of control current (GABA EC3-5 = 100%) (α1β3 GABAA receptors; α1β3, 100 nM, 0.1 µM): 117.8±5.9%
EC50 (α1β3 GABAA receptors; α1β3, co-applied with GABA EC3-5, read-out: EC50): 1470 nM and 2200 nM
current as % of control at 0.1 µM (α1β1R41N GABAA receptors; 100nM): 70 ± 1%
current as % of control at 0.3 µM (α1β1R41N GABAA receptors; 300nM): 65 ± 6%
current as % of control at 1 µM (α1β1R41N GABAA receptors; 1μM): 85 ± 7%
current as % of control at 3 µM (α1β1R41N GABAA receptors; 3µM): 100 ± 8%
current as % of control at 10 µM (α1β1R41N GABAA receptors; 10μM): 125 ± 5%
current as % of control at 30 µM (α1β1R41N GABAA receptors; 30μM): 110 ± 10%
EC50 (α1β3N41R GABAA receptors): 200 nM
EC50 (α2β3γ2 GABAA receptors): > 10 µM
activity at 0.01 µM (α2β3γ2 GABAA receptors; read-out: efficacy, % of control current (GABA EC3-5 = 100%), α2β3γ2, 10 nM): 103 ± 3.2%
activity at 0.1 µM (α2β3γ2 GABAA receptors; read-out: efficacy, % of control current (GABA EC3-5 = 100%), α2β3γ2, 100 nM): 103 ± 3.2%
activity at 1 µM (α2β3γ2 GABAA receptors; read-out: efficacy, % of control current (GABA EC3-5 = 100%), α2β3γ2, 1 µM): 106 ± 2.2%
activity at 10 µM (α2β3γ2 GABAA receptors; read-out: efficacy, % of control current (GABA EC3-5 = 100%), α2β3γ2, 10 µM): 124 ± 4.1%
EC50 (α4β3γ2 GABAA receptors): > 10 µM
activity at 0.001 µM (α4β3γ2 GABAA receptors; read-out: efficacy, % of control current (GABA EC3-5 = 100%), α4β3γ2, 1 nM): 99.7 ± 2%
activity at 0.003 µM (α4β3γ2 GABAA receptors; read-out: efficacy, % of control current (GABA EC3-5 = 100%), α4β3γ2, 3 nM): 111%
activity at 0.01 µM (α4β3γ2 GABAA receptors; read-out: efficacy, % of control current (GABA EC3-5 = 100%), α4β3γ2, 10 nM): 107 ± 3.4%
activity at 0.03 µM (α4β3γ2 GABAA receptors; read-out: efficacy, % of control current (GABA EC3-5 = 100%), α4β3γ2, 30 nM): 114%
activity at 0.1 µM (α4β3γ2 GABAA receptors; read-out: efficacy, % of control current (GABA EC3-5 = 100%), α4β3γ2, 100 nM): 122 ± 4.6%
activity at 1 µM (α4β3γ2 GABAA receptors; read-out: efficacy, % of control current (GABA EC3-5 = 100%), α4β3γ2, 1 µM): 137 ± 6.7%
activity at 10 µM (α4β3γ2 GABAA receptors; read-out: efficacy, % of control current (GABA EC3-5 = 100%), α4β3γ2, 10 µM): 104 ± 12.6%
